Results reported in patent US10343997B1, “Ursolic acid derivatives” (KING SAUD UNIVERSITY, priority 2018, dated 2019).

Tests used:
guinea-pig ileum = test: Calcium-induced contraction in K+-depolarized guinea-pig ileum; format: cell-based; conditions: 2×10^−9 M of compound; for Emax at 0.002 µM: Cavia porcellus, contraction induced by 3 mM calcium, 84.44% without antagonist, read-out: calcium-induced contractions, % of the maximum response
Description: (§1) Male guinea-pigs, weighing between 200-400 g, were killed by a blow on the head after previously being deprived of food for 18 h but having had free access to water. The non-terminal part of the ileum was removed and cut into 20-mm long segments, which were suspended in an organ bath and connected to an isotonic transducer. The organ bath contained 50 mL physiological solution oxygenated with 95% O2 and 5% […] at 37° C. The physiological solution was typically normal saline with 0.9% sodium chloride. The fluid of the organ bath was changed every 15 min. The ileal segments were subjected to a resting tension of 0.5-1 g and left to equilibrate for 60 min.
As a control, increasing concentrations of CaCl2 (0.1, 0.3, 1, 3, 10 mmol) were added to an organ bath and the contractile response of the ileum was recorded. Tissues were then preincubated for 15-20 min with one concentration of each calcium channel blocker and increasing concentrations of CaCl2 were again added to the bathing media.
Response percentage ratios were calculated by dividing the percent of maximum responses induced by 3 mM calcium in the presence of each calcium-channel blocker at a concentration of 2×10^−9 M by the percent of maximum response induced by 3 mM calcium in the absence of any calcium-channel blocker.

rat isolated aorta = test: Relaxation of potassium-induced contraction of rat isolated aorta; format: cell-based; conditions: rat isolated aorta pre-contracted with 40 mM KCl; means ± s.e., n = 6; read-out: pIC50 (−log IC50) for relaxation of potassium-induced contraction (converted)
Description: Six white male rats were killed by a blow on the head and decapitation. The thoracic aorta of each rat was isolated, carefully dissected from the surrounding tissues, and cut into 5 segments, 3 mm in length. The segments were joined together, suspended in Krebs solution (composition in mmol: NaCl 118, KCl 4.8, CaCl2, 2.5, KH2PO4 1.2, MgSO4 1.2, NaHCO3 25 and glucose 10) at 37° C. and oxygenated with 95% O2 and 5% CO2. The fluid of the organ bath was changed every 15 min. The tissue was subject to a resting tension of 1 g and left to equilibrate for 1 h. The contractions of isolated aortic rings were recorded by means of a force transducer and Beckman physiograph. […] The pre-contracted tissue was then subject to increasing amounts of one of the calcium channel blockers added to the organ bath. The pIC50 value of each compound was calculated from concentration-response curves.

[1] = tested on: guinea-pig isolated ileum; test: Relaxation of electrically induced contraction of guinea-pig isolated ileum; format: cell-based; conditions: Cavia porcellus, stimulation 25V, 0.1 Hz, 5 ms, means ± s.e., n = 6, read-out: pIC50 (−log IC50) for relaxation of electrically induced contraction (converted)
Description: as §1
Each segment was treated with only one compound. The pIC50 (−log IC50) value of each compound was calculated from concentration-response curves.

cardiac function = conditions: background statement; cited from earlier work
pithed rat = test: In vivo evaluation of calcium blockade in the pithed rat (cardio accelerator response)
Description: Calcium blockers in the pithed rat were calculated in vivo.
Male Sprague-Dawley rats (250-350 g) were anaesthetized with methohexitone sodium (50 mg/kg, intraperitoneal injection). Following cannulation of the trachea, the rats were pithed through one orbit with a stainless steel rod and immediately artificially respired with room air (78 strokes/min, 1 mil/100 g body weight) via a Palmer small animal respiration pump. A jugular vein was cannulated for administration of drugs. Arterial blood pressure was recorded from a carotid artery using a pressure transducer.
Heart rate was derived from the phasic arterial pressure signal with a phase lock loop ratemeter (BRL Instrument Services). […] The animals were kept warm by an incandescent lamp positioned about 25 cm above them. The pithing rod was withdrawn until the tip reached the thoracic portion of the spinal cord. All rats then received (+)tubocurarine (1.5 mg/kg, intravenously) and were bilaterally vagotomized.
The cardio accelerator response was obtained by continuous electrical stimulation of the thoracic spinal cord with square wave pulses of 0.5 ms duration, at supramaximal voltage at a frequency of 0.5 Hz using the pithing rod as a stimulating electrode. An indifferent electrode was inserted subcutaneously in the femoral region. Only rats with a resulting tachycardia of more than 100 beats/min were included in the experiments. When the cardio accelerator response was stabilized for about 3-5 min, cumulative intravenous doses of test drug or corresponding vehicle were administered. Successive doses were given when the response to the previous dose stabilized.
Doses of β-blockers or calcium-antagonists, which reduce the tachycardia to 50%, were tested again. Three minutes after administration of the drug, calcium gluconate (1 mg/min) or water (0.1 ml/min) was infused using a Harvard apparatus compact infusion pump.
The level of tachycardia immediately prior to drug administration was taken as 100% and responses to drugs were calculated as a percentage of the predose tachycardia. […] Significance of differences between the groups receiving calcium gluconate and their parallel vehicle controls were calculated by a Student's t-test.

[2] = target: voltage-dependent calcium channel; test: In vitro 3H-nitrendipine binding assay; conditions: competition with 3H-nitrendipine, plasma membrane from bovine cerebral cortices

| IC50 (rat isolated aorta) | IC50 [1] | Structure (SMILES) | Emax at 0.002 µM (guinea-pig ileum) | effect on tachycardia elicited by electrical stimulation of the spinal cord (pithed rat; result in words) | further results |
| --- | --- | --- | --- | --- | --- |
| 5.13 nM | 35.5 nM | COC(=O)C1=C(C)NC(C)=C(C(=O)OC)C1c1ccccc1[N+](=O)[O-] [Nifedipine, reference compound] | 74% |  |  |
|  |  | C[C@H]1[C@H](C)CC[C@]2(C(=O)O)CC[C@]3(C)C(=CC[C@@H]4[C@@]5(C)CC[C@H](O)C(C)(C)[C@@H]5CC[C@]43C)[C@H]12 [ursolic acid] |  |  | heart rate decrease (cardiac function): 32% |
| 0.0174 nM | 0.347 nM | COC(=O)C1=C(C)NC(C)=C(OC(C)=O)C1[C@]12CC[C@@H](C)[C@H](C)[C@H]1C1=CC[C@@H]3[C@@]4(C)CC[C@H](OC)C(C)(C)C4CC[C@@]3(C)[C@]1(C)CC2 (stereo partly shown) [Compound 4, Dihydropyridine-3,5-dicarboxylate Ursolic Acid Derivative] | 27% |  | Response percentage ratio (guinea-pig ileum; 3 mM calcium, response with blocker divided by response without): 0.15 ± 0.009; ID50 (pithed rat; inhibition of electrically induced tachycardia, cumulative intravenous doses): 71620 nM; calcium channel blocker selectivity in pithed rat assay (pithed rat; result in words): selective calcium channel blocker; The affinity constant Ki [2]: 3.1 × 10^−13 mol/1 |
|  |  | O=C(NCCO[N+](=O)[O-])c1cccnc1 [nicorandil, reference compound] |  | no effect |  |
|  |  | CCN(CC)CC(=O)Nc1c(C)cccc1C [lignocaine, reference compound] |  | no effect |  |
